From patent US10717720B2, “Modified compound of andrographolide” (Heilongjiang Zhenbaodao Pharmaceutical Co., Ltd., priority 2015, dated 2020)

The molecules below were run on LPS-induced IL-6 release level from THP-1 cells (assay: Test of IL-6 release from THP-1 cells (LPS-induced, IL-6 in supernatant detected by CBA)). Conditions: Homo sapiens, THP-1, 24 h, read-out: Inhibition rate @ 10 uM.
Assay type: cell-based
Summary of the method: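 THP-1 cells were treated with compound at final 30, 10, 3 and 1 uM, with dexamethasone 100 nM as reference, then stimulated with LPS. The LPS working solution was 800 ng/ml. After 24 h at 37 °C, IL-6 in the supernatant was measured by CBA.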

Q: How did the inhibition at 10 µM turn out when `C=C1CCC2[C@]3(C)CO[C@@H](C4CCCC4)O[C@@H]3CC[C@@]2(C)[C@@H]1CCOc1cc(Cl)ccc1C(=O)O` (stereo partly drawn) [Compound 448, 4-chloro-2-(2-((3R,4aR,6aS,7R,10bR)-3-cyclopentyl-6a,10b-dimethyl-8-dihydromethylenedecahydro-1H-naphtho[2,1-d][1,3]dioxin-7-yl)ethoxy)benzoic acid] was run?
A: < 30%

Q: `C=C1CCC2[C@]3(C)CO[C@@H](C4CCCC4)O[C@@H]3CC[C@@]2(C)[C@@H]1CCn1cc(C(=O)O)ccc1=O` (stereo partly drawn) [Compound 457, 1-(2-((3R,4aR,6aS,7R,10bR)-3-cyclopentyl-6a,10b-dimethyl-8-dihydromethylene-1H-naphtho[2,1-d][1,3]dioxin-7-yl)ethyl)-6-oxo-1,6-dihydropyridine-3-carboxylic acid] was tested. Which inhibition at 10 µM did it give?
A: > 60%

Same assay, conditions: Homo sapiens; inflammatory factor IL-6 detected by CBA; compound 10 uM; LPS-stimulated THP-1 cells, supernatant after 24 hours; read-out: Inhibition rate @ 10 uM

Q: `C=C1CCC2[C@]3(C)CO[C@@H](C4CCCC4)O[C@@H]3CC[C@@]2(C)[C@@H]1CCOc1ccc(C(=O)O)nc1` (stereo partly drawn) [Compound 432, 5-(2-((3R,4aR,6aS,7R,10bR)-3-cyclopentyl-6a,10b-dimethyl-8-dihydromethylenedecahydro-1H-naphtho[2,1-d][1,3]dioxin-7-yl)ethoxy)-2-picolinic acid] was tested. Which inhibition at 10 µM did it give?
A: > 60%

Q: How did the inhibition at 10 µM turn out when `C=C1CCC2[C@]3(C)CO[C@@H](C4CCCC4)O[C@@H]3CC[C@@]2(C)[C@@H]1CCN1CCN(C)CC1` (stereo partly drawn) [Compound 433, 1-(2-((3R,4aR,6aS,7R,10bR)-3-cyclopentyl-6a,10b-dimethyl-8-methylene-decahydro-1H-naphtho[2,1-d][1,3]dioxin-7-yl)ethyl)-4-methylpiperazine] was run?
A: > 60%

Q: `C=C1CCC2[C@]3(C)CO[C@@H](C4CCCC4)O[C@@H]3CC[C@@]2(C)[C@@H]1CCN1CCC[C@H]1C(=O)O` (stereo partly drawn) [Compound 435] was tested. Which inhibition at 10 µM did it give?
A: < 30%

Q: Which inhibition at 10 µM does the source give for `C=C1CCC2[C@]3(C)CO[C@@H](C4CCCC4)O[C@@H]3CC[C@@]2(C)[C@@H]1CCOc1ncccc1C(=O)O` (stereo partly drawn) [Compound 436, 2-(2-((3R,4aR,6aS,7R,10bR)-3-cyclopentyl-6a,10b-dimethyl-8-dihydromethylenedecahydro-1H-naphtho[2,1-d][1,3]dioxin-7-yl)ethoxy)nicotinic acid] here?
A: < 30%

Q: `C=C1CCC2[C@]3(C)CO[C@@H](C4CCCC4)O[C@@H]3CC[C@@]2(C)[C@@H]1CCOc1cc(F)ccc1C(=O)O` (stereo partly drawn) [Compound 441, 2-(2-((3R,4aR,6aS,7R,10bR)-3-cyclopentyl-6a,10b-dimethyl-8-dihydromethylenedecahydro-1H-naphtho[2,1-d][1,3]dioxin-7-yl)ethoxy)-4-fluorobenzoic acid] was tested. Which inhibition at 10 µM did it give?
A: 30 to 60%

Q: `C=C1CCC2[C@]3(C)CO[C@@H](C4CCCC4)O[C@@H]3CC[C@@]2(C)[C@@H]1CCOc1cncc(OC)c1` (stereo partly drawn) [Compound 442, 3-(2-((3R,4aR,6aS,7R,10bR)-3-cyclopentyl-6a,10b-dimethyl-8-dihydromethylenedecahydro-1H-naphtho[2,1-d][1,3]dioxin-7-yl)ethoxy)-5-methoxypyridine] was tested. Which inhibition at 10 µM did it give?
A: 30 to 60%

Q: `C=C1CCC2[C@]3(C)CO[C@@H](C4CCCC4)O[C@@H]3CC[C@@]2(C)[C@@H]1CCOc1cncc(O)c1` (stereo partly drawn) [Compound 443, 5-(2-((3R,4aR,6aS,7R,10bR)-3-cyclopentyl-6a,10b-dimethyl-8-dihydromethylenedecahydro-1H-naphtho[2,1-d][1,3]dioxin-7-yl)ethoxy)-pyridin-3-ol] was tested. Which inhibition at 10 µM did it give?
A: 30 to 60%

Q: For `C=C1CCC2[C@]3(C)CO[C@@H](C4CCCC4)O[C@@H]3CC[C@@]2(C)[C@@H]1CCOc1cc(C#N)ccc1C(=O)O` (stereo partly drawn) [Compound 445, 4-cyano-2-(2-((3R,4aR,6aS,7R,10bR)-3-cyclopentyl-6a,10b-dimethyl-8-dihydromethylenedecahydro-1H-naphtho[2,1-d][1,3]dioxin-7-yl)ethoxy)benzoic acid], which inhibition at 10 µM is on record?
A: < 30%

Q: How did the inhibition at 10 µM turn out when `C=C1CCC2[C@]3(C)CO[C@@H](C4CCOCC4)O[C@@H]3CC[C@@]2(C)[C@@H]1CCOc1ccncc1` (stereo partly drawn) [Compound 446, 4-(2-((3R,4aR,6aS,7R,10bR)-6a,10b-dimethyl-8-dihydromethylene-3-(tetrahydro-2H-pyran-4-yl)decahydro-1H-naphtho[2,1-d][1,3]dioxin-7-yl)ethoxy)pyridine] was run?
A: < 30%

Q: Which inhibition at 10 µM does the source give for `C=C1CCC2[C@]3(C)CO[C@@H](C4CCCC4)O[C@@H]3CC[C@@]2(C)[C@@H]1CCOc1cc(C)ccc1C(=O)O` (stereo partly drawn) [Compound 447, 2-(2-((3R,4aR,6aS,7R,10bR)-3-cyclopentyl-6a,10b-dimethyl-8-dihydromethylenedecahydro-1H-naphtho[2,1-d][1,3]dioxin-7-yl)ethoxy)-4-methylbenzoic acid] here?
A: < 30%

Q: How did the inhibition at 10 µM turn out when `C=C1CCC2[C@]3(C)CO[C@@H](C4CCCC4)O[C@@H]3CC[C@@]2(C)[C@@H]1CCN1CCC[C@@H]1C(=O)O` (stereo partly drawn) [Compound 450] was run?
A: > 60%

Q: For `C=C1CCC2[C@]3(C)CO[C@@H](C4CCCC4)O[C@@H]3CC[C@@]2(C)[C@@H]1CCN1CCCC[C@@H]1C(=O)O` (stereo partly drawn) [Compound 451, (2R)-1-(2-((3R,4aR,6aS,7R,10bR)-3-cyclopentyl-6a,10b-dimethyl-8-methylene-decahydro-1H-naphtho[2,1-d][1,3]dioxin-7-yl)ethyl)piperidine-2-carboxylic acid], which inhibition at 10 µM is on record?
A: 30 to 60%

Q: `C=C1CCC2[C@]3(C)CO[C@@H](C4CCCC4)O[C@@H]3CC[C@@]2(C)[C@@H]1CCOc1cccc(F)c1C(=O)O` (stereo partly drawn) [Compound 452, 2-(2-((3R,4aR,6aS,7R,10bR)-3-cyclopentyl-6a,10b-dimethyl-8-dihydromethylenedecahydro-1H-naphtho[2,1-d][1,3]dioxin-7-yl)ethoxy)-6-fluoro-benzoic acid] was tested. Which inhibition at 10 µM did it give?
A: 30 to 60%

Q: `C=C1CCC2[C@]3(C)CO[C@@H](C4CCCC4)O[C@@H]3CC[C@@]2(C)[C@@H]1CCOc1cscc1C(=O)O` (stereo partly drawn) [Compound 453, 4-(2-((3R,4aR,6aS,7R,10bR)-3-cyclopentyl-6a,10b-dimethyl-8-dihydromethylenedecahydro-1H-naphtho[2,1-d][1,3]dioxin-7-yl)ethoxy)thiophene-3-carboxylic acid] was tested. Which inhibition at 10 µM did it give?
A: > 60%

Q: With `C=C1CCC2[C@]3(C)CO[C@@H](C4CCCC4)O[C@@H]3CC[C@@]2(C)[C@@H]1CCOc1cnc(C(=O)O)nc1` (stereo partly drawn) [Compound 454, 5-(2-((3R,4aR,6aS,7R,10bR)-3-cyclopentyl-6a,10b-dimethyl-8-dihydromethylenedecahydro-1H-naphtho[2,1-d][1,3]dioxin-7-yl)ethoxy)pyrimidine-2-carboxylic acid] as the molecule, how does the inhibition at 10 µM read?
A: 30 to 60%

Q: Which inhibition at 10 µM does the source give for `C=C1CCC2[C@]3(C)CO[C@@H](C4CCCC4)O[C@@H]3CC[C@@]2(C)[C@@H]1CCN1CCOC[C@@H]1C(=O)O` (stereo partly drawn) [Compound 456] here?
A: > 60%

Q: `C=C1CCC2[C@]3(C)CO[C@@H](C4CCCC4)O[C@@H]3CC[C@@]2(C)[C@@H]1CCn1cc(C(=O)O)cn1` (stereo partly drawn) [Compound 458, 1-(2-((3R,4aR,6aS,7R,10bR)-3-cyclopentyl-6a,10b-dimethyl-8-dihydromethylene-1H-naphtho[2,1-d][1,3]dioxin-7-yl)ethyl)-1H-pyrazole-4-carboxylic acid] was tested. Which inhibition at 10 µM did it give?
A: 30 to 60%

Q: How did the inhibition at 10 µM turn out when `C=C1CCC2[C@]3(C)CO[C@@H](C4CCCC4)O[C@@H]3CC[C@@]2(C)[C@@H]1CCOC1CCN(C(C)(C)C(=O)O)CC1` (stereo partly drawn) [Compound 463] was run?
A: > 60%

Q: With `C=C1CCC2[C@]3(C)CO[C@@H](C4CCCC4)O[C@@H]3CC[C@@]2(C)[C@@H]1CCOC1CCN(CCO)CC1` (stereo partly drawn) [Compound 482, 2-(4-(2-((3R,4aR,6aS,7R,10bR)-3-cyclopentyl-6a,10b-dimethyl-8-dihydromethylenedecahydro-1H-naphtho[2,1-d][1,3]dioxin-7-yl)ethoxy)piperidine-1-yl)ethanol] as the molecule, how does the inhibition at 10 µM read?
A: > 60%
